Assays:
[1] = system: histone deacetylase (HDAC), nuclear extract of Hela cells; assay: Deacetylase activity on nuclear extract of HeLa cells (Fluor de Lys kit); format: biochemical, human; conditions: percent inhibition relative to control without inhibitor, compound at 0.1 μM
Protocol: (§1) The activity of the compounds as histone deacetylase (HDAC) inhibitors was measured using an in vitro acetylation assay. The compounds were then evaluated as inhibitors of proliferation of human tumor cell cultures.
Deacetylase Activity on Nuclear Extract of Hela Cells (Human Cervical Cancer Cell)
The assay (Fluor de Lys™ kit, BioMol) is divided into two steps: in the first step the substrate which comprises an acetylated lysine residue is reacted with the nuclear extract (HeLa) containing the enzymatic activity in the presence and absence of inhibitors. In the second step a fluorogenic reagent is added which highlights the deacetylated residues. A reduction in fluorescence is obtained where there has been inhibition of the deacetylase activity. The result is finally expressed as percent inhibition relative to the control without inhibitor at a concentration of 0.1 μM.

[2] = system: Human colon carcinoma cells HCT-116; assay: Cytotoxic activity on culture of human colon carcinoma cells HCT-116 (Alamar Blue); format: cell-based; conditions: HCT-116 cells, 72 hours after addition of compounds, Alamar Blue viability
Protocol: as §1
24 hours after seeding, the compounds at different concentrations are added. […] 72 hours after addition of the compounds, cell viability is measured by means of the dye Alamar Blue.

| Structure (SMILES) | % inhib. 0.1 μM [1] [%] | IC50 [2] [nM] | IC50 ([2]; Homo sapiens, HCT-116, 72 h) [nM] |
| --- | --- | --- | --- |
| COc1c(NC(=O)N2CCC(CCCC(=O)NO)CC2)ccc2ccccc12 [Ex 160] | 67 | 200 |  |
| CC(C)Oc1ccc(NC(=O)N2CCC(CCCC(=O)NO)CC2)cc1 [Ex 139, 4-(3-Hydroxycarbamoyl-propyl)-piperidine-1-carboxylic acid (4-isopropoxy-phenyl)-amide] | 56 |  | 400 |
| Cc1ccc(CNC(=O)N2CCC(CCCC(=O)NO)CC2)cc1 [Ex 52, 4-(3-Hydroxycarbamoyl-propyl)-piperidine-1-carboxylic acid 4-methyl-benzylamide] | 68 |  | 500 |
| N[C@@H](CC(=O)N1CCC(CCCC(=O)NO)CC1)c1cccc(Cl)c1 [Ex 171, 4-{1-[3-(S)-Amino-3-(3-chloro-phenyl)-propionyl]-piperidin-4-yl}-N-hydroxy-butyramide] | 45 | 400 |  |
| O=C(CCCC1CCN(C(=O)Nc2ccc(-c3ccccn3)cc2)CC1)NO [Ex 151, 4-(3-Hydroxycarbamoyl-propyl)-piperidine-1-carboxylic acid (4-pyridin-2-yl-phenyl)-amide] | 50 |  | 100 |
| O=C(CCCC1CCN(C(=O)Nc2ccccc2)CC1)NO [Ex 8, 4-(3-Hydroxycarbamoyl-propyl)-piperidine-1-carboxylic acid phenylamide] | 53 |  | 700 |
| O=C(CCCC1CCN(C(=O)Nc2cccc(Cl)c2F)CC1)NO [Ex 83, 4-(3-Hydroxycarbamoyl-propyl)-piperidine-1-carboxylic acid (3-chloro-2-fluoro-phenyl)-amide] | 58 |  | 670 |
| Nc1ccccc1NC(=O)N1CCC(CCCC(=O)NO)CC1 [Ex 73, 4-(3-Hydroxycarbamoyl-propyl)-piperidine-1-carboxylic acid (2-amino-phenyl)-amide] | 73 |  | 840 |
| Nc1ccc2cc(NC(=O)N3CCC(CCCC(=O)NO)CC3)ccc2c1 [Ex 181, N-(6-aminonaphthalen-2-yl)-4-(4-(hydroxyamino)-4-oxobutyl)piperidine-1-carboxamide] | 64 |  | 470 |
| Cc1ccc(NC(=O)N2CCC(CCCC(=O)NO)CC2)cc1 [Ex 22, 4-(3-Hydroxycarbamoyl-propyl)-piperidine-1-carboxylic acid p tolylamide] | 67 | 940 |  |
| O=C(CCCC1CCN(C(=O)NCc2csc3ccc(Cl)cc23)CC1)NO [Ex 188, N-(5-Chloro-benzo[b]thiophen-3-ylmethyl)-4-(4-(hydroxyamino)-4-oxobutyl)piperidine-1-carboxamide] | 50 |  | 210 |
| O=C(CCCC1CCCN(C(=O)Nc2ccccc2)C1)NO (centres unmarked) [Ex 192, 3-(4-(hydroxyamino)-4-oxobutyl)-N-phenylpiperidine-1-carboxamide] | 68 |  | 600 |
| N[C@@H](CC(=O)N1CCC(CCCC(=O)NO)CC1)c1cccc(F)c1 [Ex 175, 4-{1-[3-(S)-Amino-3-(3-fluoro-phenyl)-propionyl]-piperidin-4-yl}-N-hydroxy-butyramide] | 70 |  | 600 |
| O=C(CCCC1CCN(C(=O)Nc2cccc3ccccc23)CC1)NO [Ex 35, 4-(3-Hydroxycarbamoyl-propyl)-piperidine-1-carboxylic acid 1-naphthylamide] | 55 |  | 710 |
| CCCOc1ccc(NC(=O)N2CCC(CCCC(=O)NO)CC2)cc1 [Ex 137, 4-(3-Hydroxycarbamoyl-propyl)-piperidine-1-carboxylic acid (4-propoxy-phenyl)-amide] | 68 |  | 150 |
| N[C@H](Cc1cccc2ccccc12)C(=O)N1CCC(CCCC(=O)NO)CC1 [Ex 93, 4-[1-(2-(R)-Amino-3-naphthalen-1-yl-propionyl)-piperidin-4-yl]-N-hydroxy-butyramide] | 64 |  | 500 |
| O=C(CCCC1CCN(C(=O)Nc2ccc(-c3csnn3)cc2)CC1)NO [Ex 178, 4-(3-Hydroxycarbamoyl-propyl)-piperidine-1-carboxylic acid (4-[1,2,3]thiadiazol-4-yl-phenyl)-amide] | 45 |  | 300 |
| N[C@H](CC(=O)N1CCC(CCCC(=O)NO)CC1)c1cccc2ccccc12 [Ex 159, 4-[1-(3-(R)-Amino-3-naphthalen-1-yl-propionyl)-piperidin-4-yl]-N-hydroxy-butyramide] | 79 |  | 200 |
| NC[C@@H](NC(=O)c1cc2ccccc2s1)C(=O)N1CCC(CCCC(=O)NO)CC1 [Ex 115, 2-oxo-ethyl}-amideBenzo[b]thiophene-2-carboxylic acid{1-(R)-aminomethyl-2-[4-(3-hydroxycarbamoyl-propyl)-piperidin-1-yl]-] | 62 | 900 |  |
| N[C@@H](CCc1ccccc1)C(=O)N1CCC(CCCC(=O)NO)CC1 [Ex 105, 4-[1-(2-(S)-Amino-4-phenyl-butyryl)-piperidin-4-yl]-N-hydroxy-butyramide] | 59 | 950 |  |
| N[C@@H](CC(=O)N1CCC(CCCC(=O)NO)CC1)c1cccc(Cl)c1 [Ex 168, 4-{1-[3-(S)-Amino-3-(3-chloro-phenyl)-propionyl]-piperidin-4-yl}-N-hydroxy-butyramide] | 55 | 90 |  |
| O=C(CCCC1CCN(C(=O)NCc2cccc(Cl)c2)CC1)NO [Ex 39, 4-(3-Hydroxycarbamoyl-propyl)-piperidine-1-carboxylic acid 3-chloro-benzylamide] | 60 |  | 810 |
| O=C(CCCC1CCN(C(=O)[C@@H](CCO)NC(=O)c2cc3ccccc3s2)CC1)NO [Ex 110, Benzo[b]thiophene-2-carboxylic acid{3-hydroxy-1-(R)-[4-(3-hydroxycarbamoyl-propyl)-piperidine-1-carbonyl]-propyl}-amide] | 54 | 260 |  |
| O=C(CCCC1CCN(C(=O)NCc2ccccc2)CC1)NO [Ex 7, 4-(3-Hydroxycarbamoyl-propyl)-piperidine-1-carboxylic acid benzylamide] | 59 |  | 300 |
| O=C(CCCC1CCN(C(=O)CNC(=O)c2cc3ccccc3s2)CC1)NO [Ex 79, Benzo[b]thiophene-2-carboxylic acid {2-[4-(3-hydroxycarbamoyl-propyl)-piperidin-1-yl]-2-oxo-ethyl}-amide] | 70 |  | 770 |
| O=C(CCCC1CCN(C(=O)Nc2ccc3ccccc3c2)CC1)NO [Ex 36, 4-(3-Hydroxycarbamoyl-propyl)-piperidine-1-carboxylic acid 2-naphthylamide] | 73 |  | 830 |
| N[C@H](CC(=O)N1CCC(CCCC(=O)NO)CC1)Cc1csc2ccccc12 [Ex 146, 4-[1-(3-(S)-Amino-4-benzo[b]thiophen-3-yl-butyryl)-piperidin-4-yl]-N-hydroxy-butyramide] | 68 |  | 60 |
| O=C(CCCC1CCN(C(=O)Nc2cccc(-c3ccccc3)c2)CC1)NO [Ex 150, 4-(3-Hydroxycarbamoyl-propyl)-piperidine-1-carboxylic acid biphenyl-3-ylamide] | 57 |  | 180 |

Source: patent publication US20080207694A1, “Hydroxamates as Histone Deacetylase Inhibitors and Pharmaceutical Formulations Containing Them” (priority 2005, published 2008)
